Data published in article PMC9780857 (International Journal of Molecular Sciences, 2022).
Read-outs that look alike come from different tables or passages of the source.

Assays:
Type in all cases: cell-based
Set-up in all cases: expressed in transfected cells; host or cells: HEK293 (stably transfected)
hOCT2 [1] = biological target: T1, hOCT2 (Homo sapiens, UniProt O15244); assay: Inhibition of hOCT2-mediated 14C-metformin uptake in transfected HEK293 cells
T1 sequence (O15244 1-555): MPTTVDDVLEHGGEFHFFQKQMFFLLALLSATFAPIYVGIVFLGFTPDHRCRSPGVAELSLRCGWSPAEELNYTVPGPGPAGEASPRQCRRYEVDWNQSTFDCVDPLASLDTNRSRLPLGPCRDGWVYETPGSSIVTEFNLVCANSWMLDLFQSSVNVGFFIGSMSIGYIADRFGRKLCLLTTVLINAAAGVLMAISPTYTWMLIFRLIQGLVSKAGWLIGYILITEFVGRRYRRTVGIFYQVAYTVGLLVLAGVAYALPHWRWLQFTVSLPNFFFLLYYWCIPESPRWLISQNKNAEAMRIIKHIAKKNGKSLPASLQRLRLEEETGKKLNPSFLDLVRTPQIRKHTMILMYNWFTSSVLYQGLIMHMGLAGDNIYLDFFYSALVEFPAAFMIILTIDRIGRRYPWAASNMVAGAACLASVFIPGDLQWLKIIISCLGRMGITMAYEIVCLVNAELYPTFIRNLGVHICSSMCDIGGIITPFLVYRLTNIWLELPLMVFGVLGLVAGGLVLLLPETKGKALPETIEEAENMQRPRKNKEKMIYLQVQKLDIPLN
Description: (§1) The uptake assays were performed as previously described in 24-well plates. […] After incubation, the uptake was stopped by aspirating the reaction mixture and washing the cells three times with 0.4 mL ice-cold PBS buffer. Cells were then solubilized with 0.6 mL of 1 N NaOH, overnight. The whole content of each well (0.6 mL) was transferred to a scintillation vial (Perkin Elmer). The radio-labelled amount was determined by liquid scintillation counting.
(§2) All inhibition experiments were conducted on at least two separate days in triplicate.
(§3) For screening experiments, cis-inhibition was carried out in duplicate by measuring the uptake of the labeled probe substrate in the absence and presence of 10 µM or 100 µM of the respective pesticide or drug. […] Inhibitory effects in percent were calculated from net-uptake. […]

mOct2 [2] = biological target: T2, mOct2 (Mus musculus, UniProt O70577); assay: Inhibition of mOct2-mediated 14C-metformin uptake in transfected HEK293 cells
T2 sequence (O70577 1-553): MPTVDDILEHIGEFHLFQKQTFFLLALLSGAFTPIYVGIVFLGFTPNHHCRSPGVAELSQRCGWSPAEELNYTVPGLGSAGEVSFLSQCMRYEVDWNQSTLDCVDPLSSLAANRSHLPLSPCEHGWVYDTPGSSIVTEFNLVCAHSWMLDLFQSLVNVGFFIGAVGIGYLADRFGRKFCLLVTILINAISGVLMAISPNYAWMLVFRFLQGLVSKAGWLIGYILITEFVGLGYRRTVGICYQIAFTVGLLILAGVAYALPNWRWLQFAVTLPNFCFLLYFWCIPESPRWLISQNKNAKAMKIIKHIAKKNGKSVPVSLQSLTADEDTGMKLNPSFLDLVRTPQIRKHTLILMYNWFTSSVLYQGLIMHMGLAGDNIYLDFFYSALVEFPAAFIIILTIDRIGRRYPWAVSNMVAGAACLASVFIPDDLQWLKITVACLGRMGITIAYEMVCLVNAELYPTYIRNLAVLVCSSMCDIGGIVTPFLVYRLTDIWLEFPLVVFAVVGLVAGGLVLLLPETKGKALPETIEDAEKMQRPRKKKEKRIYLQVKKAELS
Description: as §1, §2, §3

hOCT2 [3] = biological target: T1, hOCT2; assay: Inhibition of hOCT2-mediated 3H-MPP uptake in transfected HEK293 cells
Description: (§4) With cDNA of hOCT2 (GeneBank: accession number: NM_003058.3) or mOct2 (NM_013667.2), stably overexpressing HEK293 cells were used for the experiments and empty vector-transfected HEK cells were used as control-HEK cells.
(§5) The uptake assays were performed as previously described in 24-well plates. Therefore, culture medium was aspirated, and each well was rinsed three times with 0.5 mL incubation buffer (HBSS supplemented with 20 mM HEPES, pH 7.4) and then incubated in 200 µL dosing solution containing ^3H-MPP or ^14C-metformin and the test compound. After incubation, the uptake was stopped by aspirating the reaction mixture and washing the cells three times with 0.4 mL ice-cold PBS buffer. Cells were then solubilized with 0.6 mL of 1 N NaOH, overnight. The whole content of each well (0.6 mL) was transferred to a scintillation vial (Perkin Elmer). The radio-labelled amount was determined by liquid scintillation counting.
(§6) […]. All inhibition experiments were conducted on at least two separate days in triplicate.
(§7) The Km and Vmax values were obtained using SigmaPlot version 13 by fitting the Michaelis–Menten equation V = Vmax*[S]/(Km + [S]), where V refers to the rate of substrate transport, Vmax refers to the maximum rate of substrate transport, [S] refers to the concentration of substrate, and Km is defined as the concentration of substrate at the half-maximal transport rate.

mOct2 [4] = biological target: T2, mOct2; assay: Inhibition of mOct2-mediated 3H-MPP uptake in transfected HEK293 cells
Description: as §4, §5, §6, §7

[5] = HEK293, 10 µM test compound, 1 µM [14C]metformin, 2 min, HEK293, negative = stimulation, read-out: Inhibitory Effects (%) hOCT2 10 µM Mean
[6] = HEK293, 100 µM test compound, 1 µM [14C]metformin, 2 min, HEK293, negative = stimulation, read-out: Inhibitory Effects (%) hOCT2 100 µM Mean
[7] = HEK293, 10 µM test compound, 1 µM [14C]metformin, 2 min, HEK293, negative = stimulation, read-out: Inhibitory Effects (%) mOct2 10 µM Mean
[8] = HEK293, 100 µM test compound, 1 µM [14C]metformin, 2 min, HEK293, negative = stimulation, read-out: Inhibitory Effects (%) mOct2 100 µM Mean
[9] = HEK293, read-out: Inhibitory Effects (%) hOCT2 10 µM Mean
[10] = HEK293, read-out: Inhibitory Effects (%) hOCT2 100 µM Mean
[11] = HEK293, read-out: Inhibitory Effects (%) mOct2 10 µM Mean
[12] = HEK293, read-out: Inhibitory Effects (%) mOct2 100 µM Mean
[13] = 10 µM test compound, 1 µM [14C]metformin, 2 min, HEK293, negative = stimulation
[14] = 100 µM test compound, 1 µM [14C]metformin, 2 min, HEK293, negative = stimulation

Compound | inhibition at 10 µM (hOCT2 [1]; [9]) [%] | inhibition at 100 µM (hOCT2 [1]; [10]) [%] | inhibition at 10 µM (mOct2 [2]; [11]) [%] | inhibition at 100 µM (mOct2 [2]; [12]) [%] | further results
CCCCc1oc2ccccc2c1C(=O)c1cc(I)c(OCCN(CC)CC)c(I)c1 [Amiodarone] |  |  |  |  | inhibition at 10 µM (hOCT2 [1]; [5]): -10%; inhibition at 100 µM (hOCT2 [1]; [6]): -27%; inhibition at 10 µM (mOct2 [2]; [7]): -7%; inhibition at 100 µM (mOct2 [2]; [8]): 4%
Cc1ccc(/N=C/N(C)/C=N/c2ccc(C)cc2C)c(C)c1 [Amitraz] | -98 | -96 | -33 | -12 | 
CCNc1nc(Cl)nc(NC(C)C)n1 [Atrazin] | -57 | -53 | -44 | -27 | 
CO/C=C(/C(=O)OC)c1ccccc1Oc1cc(Oc2ccccc2C#N)ncn1 [Azoxystrobin] |  |  |  |  | Inhibitory Effects (%) hOCT2 10 µM Mean (hOCT2 [1]; [13]): −40%; Inhibitory Effects (%) hOCT2 100 µM Mean (hOCT2 [1]; [14]): −14%; Inhibitory Effects (%) mOct2 10 µM Mean (mOct2 [2]; [13]): −6%; Inhibitory Effects (%) mOct2 100 µM Mean (mOct2 [2]; [14]): −17%
CN/C(=N/CCSCc1nc[nH]c1C)NC#N [Cimetidine] |  |  |  |  | inhibition at 10 µM (hOCT2 [1]; [5]): -50%; inhibition at 100 µM (hOCT2 [1]; [6]): -17%; inhibition at 10 µM (mOct2 [2]; [7]): -42%; inhibition at 100 µM (mOct2 [2]; [8]): 24%
O=C(O)CNCP(=O)(O)O [Glyphosat] | -24 | -48 | -13 | -31 | 
C=CCOC(Cn1ccnc1)c1ccc(Cl)cc1Cl (centres unmarked) [Imazalil] | 52 | 93 | 83 | 97 | IC50 (hOCT2 [1]): 4.7 µM; IC50 (mOct2 [2]): 0.58 µM; Fold higher inhibitory potency to mouse than to human OCT2 (IC50 ratio) (mOct2 [2]; metformin as substrate): 8 fold; IC50 (hOCT2 [3]): 51 ± 16 µM; Fold higher IC50 for hOCT2 than for mOct2 (hOCT2 [3]; MPP as substrate): 2 fold; IC50 (mOct2 [4]): 23 ± 6 µM
O=[N+]([O-])NC1=NCCN1Cc1ccc(Cl)nc1 [Imidacloprid] | -74 | -43 | -52 | -29 | 
